Experimental data as given in patent publication US12685756B2, “Methods of treating disease with Terlipressin” (BIOVIE INC., priority 2022, dated 2026).
Positions of bridges follow the written chain, without caps; N, C: chain ends. Residues, ends and D or L forms follow the SMILES beside them.

Legend:
[1] = in vivo; cited from earlier work
[2] = ongoing clinical trial of terlipressin administered as a continuous infusion in patients with cirrhosis and refractory ascites (serum sodium, hyponatremia); conditions: human, in vivo
Experimental: The following clinical observations were made in an ongoing clinical trial evaluating the safety and efficacy of terlipressin, administered as a continuous infusion, in patients with cirrhosis and refractory ascites. In FIGS. 1-4, “D” stands for “Day” and the notation “Dn” where n is an integer refers to the number of days after the baseline sodium level was measured. The notation “D+N” where N is an integer refers to the number of days after administration of terlipressin was stopped.
Patient #1, a patient with cirrhosis due to NASH and recurrent ascites that was not responding to treatment with the diuretic furosemide initiated infusion with terlipressin (3 mg/day) on Day 1. Terlipressin dose (mg/day), furosemide daily dose, and serum sodium levels of the Patient #1 are recorded in FIG. 1. After 6 days of treatment with terlipressin at a dose of 3 mg/day the dose of terlipressin was escalated to 4 mg/day as per protocol. A modest reduction in serum sodium of 3 mmol/L from baseline was noted before the dose increase. After 7 days of treatment with 4 mg/day serum sodium decreased an additional 8 mmol/L so that there was a total reduction of 11 mmol/L in the 13 days of treatment versus baseline (128 vs 139 mmol/L). […] Terlipressin infusion was discontinued.
Patient #2, a person with alcoholic cirrhosis and recurrent ascites who could not be treated with diuretics began treatment with terlipressin at a dose of 3 mg/day. The daily terlipressin dose and serum sodium levels of the Patient #2 are recorded in FIG. 2.
Patient #3, a person with cirrhosis due to NASH, with uncontrolled ascites despite ongoing treatment with the diuretics furosemide and spironolactone, initiated treatment with terlipressin administered as a continuous intravenous infusion at a dose of 3 mg/day. Terlipressin dose (mg/day), furosemide daily dose, and serum sodium levels of the Patient #3 are recorded in FIG. 3. […] Though the patient was asymptomatic the patient was directed to go to the Emergency room. […]

[3] = human, in vivo; cited from earlier work
[4] = administered acutely as a single bolus dose; cited from earlier work
[5] = bolus IV administration, cited from earlier work
[6] = in vivo; cited from earlier work; remark: listed apart in the source
[7] = human, in vivo; cited from earlier work; remark: listed apart in the source
[8] = continuous infusion, outpatient setting, without daily albumin; cited from earlier work
[9] = set-up: species or system human; conditions: in vivo
Experimental: Patient #4, who was one of 6 patients treated with terlipressin administered as a continuous infusion in our previous Phase 2a trial, was a person with recurrent ascites due to cirrhosis despite taking the […] spironolactone and furosemide. Terlipressin, furosemide, and serum sodium levels of […] are recorded in FIG. 4. According to protocol this patient began treatment with terlipressin at an initial dose of 2 mg/day who was escalated to a dose of 3 mg/day on Day 5. Serum sodium gradually declined over time reaching a reduction of 10 mmol/L on Day 5 at which point the patient stopped taking furosemide. Serum sodium continued to decline and spironolactone was stopped for two days which had no impact on declining serum sodium. Terlipressin infusion was stopped after 9 days of treatment and serum sodium rebounded after 2 days of drug cessation.
Additionally, one patient in our previously conducted Phase 2a trial (n=6) similarly developed asymptomatic hyponatremia in response to terlipressin administration.
In searching for a commonality between the three patients that experienced hyponatremia in response to terlipressin treatment in the current trial it was noted that the three patients were taking daily gabapentin (Patient #1 and 2) or pregabalin (Patient #3) though none of the other 7 patients randomized to treatment with terlipressin were taking either of these medications. Moreover, the one patient out of six who developed hyponatremia in response to terlipressin in the previous Phase 2a trial was also taking gabapentin.

[10] = administered over 14 days with daily albumin to HRS patients; cited from earlier work
[11] = in vivo; cited from earlier work; remark: listed apart in the source

SMILES: NCC1(CC(=O)O)CCCCC1 [gabapentin]
- risk of hyponatremia compared with other anti-epilepsy drugs [1]: lowest risk of hyponatremia among anti-epilepsy drugs

SMILES: NCCCC[C@H](NC(=O)[C@@H]1CCCN1C(=O)[C@@H]1CSSC[C@H](NC(=O)CNC(=O)CNC(=O)CN)C(=O)N[C@@H](Cc2ccc(O)cc2)C(=O)N[C@@H](Cc2ccccc2)C(=O)N[C@@H](CCC(N)=O)C(=O)N[C@@H](CC(N)=O)C(=O)N1)C(=O)NCC(N)=O [terlipressin] (H-GGGCYFQNCPKG-NH2; disulfide 4-9)
- additional decrease in serum sodium [2]: 4 mmol/L
- relatedness of hyponatremia to treatment [2]: considered related to terlipressin
- total reduction in serum sodium versus baseline [2]: 11 mmol/L
- patients who experienced hyponatremia defined as ≥5 mmol decrease in serum sodium [3]: 67%
- antidiuretic effect [4]: mediates antidiuretic effects
- hours in which V2 mediated antidiuretic effects can predominate ([5]; between bolus doses): 4 to 6 h
- duration of V1-mediated pharmacodynamic effects [5]: 3 to 4 h
- incidence of hyponatremia [6]: < 5%
- patients with severe hyponatremia (reduction in serum sodium of >10 mmol/L) [7]: more than 12%
- patients with severe hyponatremia who experience neurological manifestations [7]: at least 30%
- effect on renal function and ascites [8]: improve renal function and reduce ascites
- effect on serum sodium concentrations [8]: improve serum sodium concentrations
- patients who developed asymptomatic hyponatremia in response to terlipressin [9]: one patient
- relatedness of severe hyponatremia to treatment [9]: considered related to terlipressin treatment
- serum sodium after drug cessation [9]: rebounded
- symptoms of severe hyponatremia [9]: asymptomatic
- effect on low serum sodium [10]: can even correct low serum sodium

SMILES: NC(=O)CC[C@@H]1NC(=O)[C@H](Cc2ccccc2)NC(=O)[C@H](Cc2ccc(O)cc2)NC(=O)CCSSC[C@@H](C(=O)N2CCC[C@H]2C(=O)N[C@H](CCCN=C(N)N)C(=O)NCC(N)=O)NC(=O)[C@H](CC(N)=O)NC1=O [desmopressin]
- incidence of desmopressin-induced hyponatremia [11]: 7.6%
